Values after ≈ are worked out from the molar mass of the structure shown.
Key:
[1] = system: Klebsiella pneumoniae; test: Antibacterial activity against Klebsiella pneumoniae 11978 harboring plasmid pA-1carrying beta-lactamase OXA-48 by Etest method; type: functional
[2] = system: Escherichia coli; test: Antibacterial activity against Escherichia coli J53 by Etest method in presence of beta-lactamase inhibitor Tazobactam; type: functional
[3] = system: Klebsiella pneumoniae; test: Antibacterial activity against human urinary Klebsiella pneumoniae UCL-1 harboring plasmid-encoded beta-lactamase OXA-48 by Etest method; type: functional; settings: UCL-1, Urine
[4] = system: Escherichia coli; test: Antibacterial activity against Escherichia coli J53 by Etest method; type: functional
[5] = system: Klebsiella pneumoniae; test: Antibacterial activity against human urinary Klebsiella pneumoniae UCL-1 harboring plasmid-encoded beta-lactamase OXA-48 by Etest method in presence of beta-lactamase inhibitor Tazobactam; type: functional; settings: UCL-1, Urine
[6] = system: Escherichia coli; test: Antibacterial activity against Escherichia coli J53 harboring plasmid-encoded beta-lactamase OXA-48 by Etest method; type: functional
[7] = system: Escherichia coli; test: Antibacterial activity against Escherichia coli J53 harboring plasmid pA-1carrying beta-lactamase OXA-48 by Etest method in presence of beta-lactamase inhibitor Tazobactam; type: functional
[8] = system: Escherichia coli; test: Antibacterial activity against Escherichia coli J53 harboring plasmid pA-1carrying beta-lactamase OXA-48 by Etest method; type: functional
[9] = system: Escherichia coli; test: Antibacterial activity against Escherichia coli J53 harboring plasmid-encoded beta-lactamase OXA-48 by Etest method in presence of beta-lactamase inhibitor Tazobactam; type: functional
[10] = system: Klebsiella pneumoniae; test: Antibacterial activity against Klebsiella pneumoniae 11978 harboring plasmid pA-1carrying beta-lactamase OXA-48 by Etest method in presence of beta-lactamase inhibitor Tazobactam; type: functional
[11] = system: Klebsiella pneumoniae; test: Antibacterial activity against amoxicillin and amoxicillin-clavulanate resistant Klebsiella pneumoniae UCL-1 assessed as zone of inhibition by disk diffusion method; type: functional
[12] = biological target: Beta-lactamase OXA-48 (Klebsiella pneumoniae) (UniProt Q6XEC0); test: Compound hydrolyzing activity of Klebsiella pneumoniae beta-lactamase OXA-48; settings: UCL-1
[13] = system: Klebsiella pneumoniae; test: Antibacterial activity against human urinary Klebsiella pneumoniae UCL-1 harboring plasmid-encoded beta-lactamase OXA-48 by Etest method in presence of beta-lactamase inhibitor clavulanic acid; type: functional; settings: UCL-1, Urine
[14] = system: Klebsiella pneumoniae; test: Antibacterial activity against Klebsiella pneumoniae 11978 harboring plasmid pA-1carrying beta-lactamase OXA-48 by Etest method in presence of beta-lactamase inhibitor clavulanic acid; type: functional
[15] = system: Escherichia coli; test: Antibacterial activity against Escherichia coli J53 harboring plasmid-encoded beta-lactamase OXA-48 by Etest method in presence of beta-lactamase inhibitor clavulanic acid; type: functional
[16] = system: Escherichia coli; test: Antibacterial activity against Escherichia coli J53 by Etest method in presence of beta-lactamase inhibitor clavulanic acid; type: functional
[17] = system: Escherichia coli; test: Antibacterial activity against Escherichia coli J53 harboring plasmid pA-1carrying beta-lactamase OXA-48 by Etest method in presence of beta-lactamase inhibitor clavulanic acid; type: functional

Sequence of Beta-lactamase OXA-48 (Klebsiella pneumoniae) (Q6XEC0 whole entry): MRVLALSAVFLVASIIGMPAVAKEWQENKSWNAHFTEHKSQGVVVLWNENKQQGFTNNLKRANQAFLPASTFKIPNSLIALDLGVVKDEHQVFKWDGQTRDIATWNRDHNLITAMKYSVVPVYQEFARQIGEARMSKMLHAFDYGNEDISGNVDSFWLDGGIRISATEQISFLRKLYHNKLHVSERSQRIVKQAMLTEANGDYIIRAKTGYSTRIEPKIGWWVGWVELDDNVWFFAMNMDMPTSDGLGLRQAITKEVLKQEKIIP

| SMILES | MIC [1] [mg/L] | MIC [2] [mg/L] | MIC [3] [mg/L] | MIC [4] [mg/L] | MIC [5] [mg/L] | MIC [6] [mg/L] | MIC [7] [mg/L] | MIC [8] [mg/L] | MIC [9] [mg/L] | MIC [10] [mg/L] | inhibition zone (IZ) [11] [mm] | Activity [12] [µmol/min/mg] | MIC [13] [mg/L] | MIC [14] [mg/L] | MIC [15] [mg/L] | MIC [16] [mg/L] | MIC [17] [mg/L] |
| --- | --- | --- | --- | --- | --- | --- | --- | --- | --- | --- | --- | --- | --- | --- | --- | --- | --- |
| CCN1CCN(C(=O)N[C@@H](C(=O)N[C@@H]2C(=O)N3[C@@H]2SC(C)(C)[C@@H]3C(=O)O)c2ccccc2)C(=O)C1=O [PIPERACILLIN] | > 256 | 1 | 256 (≈ 495 µM) | 1 (≈ 1.93 µM) | 256 | 128 (≈ 247 µM) | 128 | 128 (≈ 247 µM) | 128 | > 256 |  |  |  |  |  |  |  |
| CC(C)(O/N=C(\C(=O)N[C@@H]1C(=O)N2C(C(=O)[O-])=C(C[n+]3ccccc3)CS[C@H]12)c1csc(N)n1)C(=O)O [CEFTAZIDIME] | > 256 |  | 1 (≈ 1.83 µM) | 0.06 (≈ 0.11 µM) |  | 0.75 (≈ 1.37 µM) |  | 0.75 (≈ 1.37 µM) |  |  |  |  |  |  |  |  |  |
| CC(=O)OCC1=C(C(=O)O)N2C(=O)[C@@H](NC(=O)Cc3cccs3)[C@H]2SC1 [CEPHALOTHIN] | > 256 |  | 16 (≈ 40.4 µM) | 4 (≈ 10.1 µM) |  | 8 (≈ 20.2 µM) |  | 8 (≈ 20.2 µM) |  |  |  |  |  |  |  |  |  |
| C[C@@H](O)[C@H]1C(=O)N2C(C(=O)O)=C(SCCNC=N)C[C@H]12 [IMIPENEM ANHYDROUS] | 64 (≈ 214 µM) |  | 0.75 (≈ 2.51 µM) |  |  | 0.75 (≈ 2.51 µM) |  | 1 (≈ 3.34 µM) |  |  | 22 | 1.6 |  |  |  |  |  |
| CN(C)c1cc(NC(=O)CNC(C)(C)C)c(O)c2c1C[C@H]1C[C@H]3[C@H](N(C)C)C(O)=C(C(N)=O)C(=O)[C@@]3(O)C(O)=C1C2=O [TIGECYCLINE] | 1.5 (≈ 2.56 µM) |  | 2 (≈ 3.41 µM) | 0.5 (≈ 0.854 µM) |  | 0.5 (≈ 0.854 µM) |  | 0.5 (≈ 0.854 µM) |  |  |  |  |  |  |  |  |  |
| CC1(C)S[C@@H]2[C@H](NC(=O)[C@H](C(=O)O)c3ccsc3)C(=O)N2[C@H]1C(=O)O [TICARCILLIN] | > 256 |  | > 256 | 2 (≈ 5.2 µM) |  | > 256 |  | > 256 |  |  |  |  | > 256 | > 256 | > 256 | 2 | > 256 |
| CC1(C)S[C@@H]2[C@H](NC(=O)[C@H](N)c3ccc(O)cc3)C(=O)N2[C@H]1C(=O)O [AMOXICILLIN] | > 256 |  | > 256 | 4 (≈ 10.9 µM) |  | > 256 |  | > 256 |  |  |  |  | > 256 | > 256 | > 256 | 4 | > 256 |
| C[C@H]1[C@H](NC(=O)/C(=N\OC(C)(C)C(=O)O)c2csc(N)n2)C(=O)N1S(=O)(=O)O [AZTREONAM] | > 256 |  | 0.064 (≈ 0.147 µM) |  |  | 0.064 (≈ 0.147 µM) |  | 0.064 (≈ 0.147 µM) |  |  |  |  |  |  |  |  |  |
| CO/N=C(\C(=O)N[C@@H]1C(=O)N2C(C(=O)[O-])=C(C[N+]3(C)CCCC3)CS[C@H]12)c1csc(N)n1 [CEFEPIME] | 32 (≈ 66.6 µM) |  | 0.125 (≈ 0.26 µM) | 0.03 (≈ 0.0624 µM) |  | 0.125 (≈ 0.26 µM) |  | 0.125 (≈ 0.26 µM) |  |  |  |  |  |  |  |  |  |
| C[C@@H](O)[C@H]1C(=O)N2C(C(=O)O)=C(S[C@@H]3CN[C@H](C(=O)Nc4cccc(C(=O)O)c4)C3)[C@H](C)[C@H]12 [ERTAPENEM] | > 32 |  | 4 (≈ 8.41 µM) | 0.03 (≈ 0.0631 µM) |  | 2 (≈ 4.21 µM) |  | 2 (≈ 4.21 µM) |  |  | 18 | 0.04 |  |  |  |  |  |
| CO/N=C(\C(=O)N[C@@H]1C(=O)N2C(C(=O)O)=C(COC(C)=O)CS[C@H]12)c1csc(N)n1 [CEFOTAXIME] | 64 (≈ 141 µM) |  | 0.125 (≈ 0.274 µM) | 0.06 (≈ 0.132 µM) |  | 0.38 (≈ 0.834 µM) |  | 0.38 (≈ 0.834 µM) |  |  |  |  |  |  |  |  |  |
| C[C@@H](O)[C@H]1C(=O)N2C(C(=O)O)=C(S[C@@H]3CN[C@H](C(=O)N(C)C)C3)[C@H](C)[C@H]12 [MEROPENEM] | 64 (≈ 167 µM) |  | 0.5 (≈ 1.3 µM) | 0.03 (≈ 0.0782 µM) |  | 0.5 (≈ 1.3 µM) |  | 0.5 (≈ 1.3 µM) |  |  | 23 | 0.05 |  |  |  |  |  |
| CO[C@@]1(NC(=O)Cc2cccs2)C(=O)N2C(C(=O)O)=C(COC(N)=O)CS[C@@H]21 [CEFOXITIN] | 128 (≈ 299 µM) |  | 2 (≈ 4.68 µM) | 2 (≈ 4.68 µM) |  | 2 (≈ 4.68 µM) |  | 2 (≈ 4.68 µM) |  |  |  |  |  |  |  |  |  |
